Experimental data reported in PubChem BioAssay AID248 (DTP/NCI, 2004).
Several values for one entry are separate records, joined by “and”; a condition that tells them apart may be missing. Identical values can stand only once. Toxic doses and inconclusive results are not listed. Rule as the data show it: active = T/C of 150% or more; inactive = T/C below 125%.

Tested on: L1210 leukemia ip in BDF1 mice, survival T/C
Experiment: NCI In Vivo Anticancer Drug Screen. Data for tumor model L1210 Leukemia (intraperitoneal) in B6D2F1 (BDF1) mice
Details: endpoint: mean survival time, higher = longer survival
Summary of the method: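 In this screen, tumor-bearing mice given compound are compared to those given vehicle, and their survival values are reported as a treated-to-control quotient.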

[1] = dose: 50.0 mg/kg/injection, schedule: Q01DX009 (ip), vehicle: saline with Tween-80
[2] = dose: 100.0 mg/kg/injection, schedule: Q04DX003 (ip), vehicle: saline with Tween-80
[3] = dose: 100.0 mg/kg/injection, schedule: Q01DX009 (ip), vehicle: saline with Tween-80
[4] = dose: 200.0 mg/kg/injection, schedule: Q01DX009 (ip), vehicle: saline with Tween-80
[5] = dose: 400.0 mg/kg/injection, schedule: Q01DX009 (ip), vehicle: saline with Tween-80
[6] = dose: 200.0 mg/kg/injection, schedule: Q04DX003 (ip), vehicle: saline with Tween-80
[7] = dose: 400.0 mg/kg/injection, schedule: Q04DX003 (ip), vehicle: saline with Tween-80
[8] = dose: 100.0 mg/kg/injection, schedule: Q04DX002 (ip), vehicle: saline
[9] = dose: 200.0 mg/kg/injection, schedule: Q04DX002 (ip), vehicle: saline
[10] = dose: 400.0 mg/kg/injection, schedule: Q04DX002 (ip), vehicle: saline
[11] = dose: 100.0 mg/kg/injection, schedule: Q01DX001 (ip), vehicle: Klucel (hydroxypropylcellulose) (HPC)
[12] = dose: 200.0 mg/kg/injection, schedule: Q01DX001 (ip), vehicle: Klucel (hydroxypropylcellulose) (HPC)
[13] = dose: 400.0 mg/kg/injection, schedule: Q01DX001 (ip), vehicle: Klucel (hydroxypropylcellulose) (HPC)
[14] = dose: 100.0 mg/kg/injection, schedule: Q04DX002 (ip), vehicle: Klucel (hydroxypropylcellulose) (HPC)
[15] = dose: 200.0 mg/kg/injection, schedule: Q04DX002 (ip), vehicle: Klucel (hydroxypropylcellulose) (HPC)
[16] = dose: 100.0 mg/kg/injection, schedule: Q01DX001 (ip), vehicle: carboxymethylcellulose (CMC)
[17] = dose: 200.0 mg/kg/injection, schedule: Q01DX001 (ip), vehicle: carboxymethylcellulose (CMC)

Measured: T/C

N=C(N)c1ccc(C(=O)Oc2ccc([N+](=O)[O-])cc2)cc1
inactive: dose: 25.0 mg/kg/injection, schedule: Q01DX009 (ip), vehicle: saline with Tween-80 103 % of control | dose: 25.0 mg/kg/injection, schedule: Q04DX003 (ip), vehicle: saline with Tween-80 94 % of control | [1] 97 % of control | dose: 50.0 mg/kg/injection, schedule: Q04DX003 (ip), vehicle: saline with Tween-80 97 % of control | [2] 98 % of control and 92 % of control

O=C(/C=C/c1ccccc1)NC(=S)Nc1ccc(O)cc1
inactive: dose: 100.0 mg/kg/injection, schedule: Q01DX001 (ip), vehicle: saline with Tween-80 96 % of control | [3] 95 % of control and 107 % of control | dose: 100.0 mg/kg/injection, schedule: Q04DX002 (ip), vehicle: saline with Tween-80 111 % of control and 88 % of control | dose: 200.0 mg/kg/injection, schedule: Q01DX001 (ip), vehicle: saline with Tween-80 98 % of control | [4] 96 % of control and 92 % of control | dose: 200.0 mg/kg/injection, schedule: Q04DX002 (ip), vehicle: saline with Tween-80 95 % of control and 111 % of control | dose: 400.0 mg/kg/injection, schedule: Q01DX001 (ip), vehicle: saline with Tween-80 96 % of control | [5] 101 % of control | dose: 400.0 mg/kg/injection, schedule: Q04DX002 (ip), vehicle: saline with Tween-80 95 % of control

CC(C)COC(=O)C1OC1(C)c1ccccc1 (stereo not drawn)
inactive: [3] 100 % of control | [4] 106 % of control | [5] 103 % of control

CCOC(=O)C(=O)C(C#N)c1cccc2ccccc12 (stereo not drawn)
inactive: dose: 100.0 mg/kg/injection, schedule: Q04DX003 (ip), vehicle: Klucel (hydroxypropylcellulose) (HPC) 100 % of control | dose: 200.0 mg/kg/injection, schedule: Q04DX003 (ip), vehicle: Klucel (hydroxypropylcellulose) (HPC) 96 % of control

O=C(Nc1ccc(C2=NCCN2)cc1)c1cccc(C(=O)Nc2ccc(C3=NCCN3)cc2)n1
inactive: dose: 15.0 mg/kg/injection, schedule: Q01DX Z (ip), vehicle: methylcellulose (MC) 96 % of control | dose: 30.0 mg/kg/injection, schedule: Q01DX Z (ip), vehicle: methylcellulose (MC) 93 % of control | dose: 60.0 mg/kg/injection, schedule: Q01DX Z (ip), vehicle: methylcellulose (MC) 104 % of control and 111 % of control | dose: 240.0 mg/kg/injection, schedule: Q01DX Z (ip), vehicle: methylcellulose (MC) 120 % of control | dose: 480.0 mg/kg/injection, schedule: Q01DX Z (ip), vehicle: methylcellulose (MC) 95 % of control

NC(=S)NC(N)=S
inactive: [2] 94 % of control | [6] 96 % of control | [7] 96 % of control

Nc1ccccc1SC1CC(=O)N(c2ccc(Br)cc2)C1=O (stereo not drawn)
inactive: dose: 100.0 mg/kg/injection, schedule: Q04DX002 (ip), vehicle: gum acacia 95 % of control | dose: 200.0 mg/kg/injection, schedule: Q04DX002 (ip), vehicle: gum acacia 88 % of control | dose: 400.0 mg/kg/injection, schedule: Q04DX002 (ip), vehicle: gum acacia 95 % of control

CCCCCCCCc1ccc(OC(C)OCCOCCOCC)cc1 (stereo not drawn)
inactive: [8] 88 % of control | [9] 88 % of control | [10] 98 % of control

CCOC(=O)C(NC(=O)OCc1ccccc1)(OCc1ccccc1)C(C)C (stereo not drawn)
inactive: [3] 105 % of control | [4] 98 % of control | [5] 100 % of control

O=c1cc(N(Cc2ccccc2)Cc2ccccc2)[nH]c(=O)[nH]1
inactive: dose: 75.0 mg/kg/injection, schedule: Q01DX001 (ip), vehicle: Klucel (hydroxypropylcellulose) (HPC) 101 % of control | dose: 75.0 mg/kg/injection, schedule: Q01DX001 (ip), vehicle: saline with Tween-80 94 % of control | dose: 150.0 mg/kg/injection, schedule: Q01DX001 (ip), vehicle: Klucel (hydroxypropylcellulose) (HPC) 102 % of control | dose: 150.0 mg/kg/injection, schedule: Q01DX001 (ip), vehicle: saline with Tween-80 95 % of control | dose: 300.0 mg/kg/injection, schedule: Q01DX001 (ip), vehicle: Klucel (hydroxypropylcellulose) (HPC) 106 % of control | dose: 300.0 mg/kg/injection, schedule: Q01DX001 (ip), vehicle: saline with Tween-80 98 % of control

CCCCN(CCCC)c1ccc([N+](=O)[O-])c2no[n+]([O-])c12
inactive: dose: 15.0 mg/kg/injection, schedule: Q04DX003 (ip), vehicle: saline with Tween-80 100 % of control | dose: 30.0 mg/kg/injection, schedule: Q04DX003 (ip), vehicle: saline with Tween-80 100 % of control | dose: 60.0 mg/kg/injection, schedule: Q04DX003 (ip), vehicle: saline with Tween-80 100 % of control

O=C(c1ccccc1)N(c1ccccc1)c1cccc(Cl)n1
inactive: [1] 93 % of control | [3] 93 % of control | [4] 90 % of control

CC(C)(C)S(=O)CCO (stereo not drawn)
inactive: [8] 109 % of control | [9] 103 % of control | [10] 103 % of control

CCOC(=O)c1c(-c2ccccc2)cn2c1OC(C)CC2(C)C (stereo not drawn)
inactive: [11] 105 % of control | [12] 100 % of control | [13] 93 % of control

Cc1ccc(S(=O)(=O)/C=C(/I)c2ccccc2)cc1
inactive: [3] 104 % of control | [2] 95 % of control | [4] 100 % of control | [6] 92 % of control | [5] 94 % of control | [7] 104 % of control

CCC1(CC)C(=O)NC(=O)N(C)C1=O
inactive: [14] 112 % of control | [15] 88 % of control

O=C(NCCCCC(NC(=O)OCc1ccccc1)C(=O)NCCCCCCNCCCCCCNC(=O)C(CCCCNC(=O)OCc1ccccc1)NC(=O)OCc1ccccc1)OCc1ccccc1 (stereo not drawn)
inactive: dose: 100.0 mg/kg/injection, schedule: Q01DX001 (ip), vehicle: saline 94 % of control | dose: 200.0 mg/kg/injection, schedule: Q01DX001 (ip), vehicle: saline 92 % of control | dose: 400.0 mg/kg/injection, schedule: Q01DX001 (ip), vehicle: saline 96 % of control

CC(=O)O[C@@]1(C)[C@@H](C)C(=O)O[C@@H]2CCN3CC=C(COC(=O)[C@]1(C)O)[C@H]23
inactive: dose: 6.25 mg/kg/injection, schedule: Q01DX009 (ip), vehicle: other 97 % of control | dose: 12.5 mg/kg/injection, schedule: Q01DX009 (ip), vehicle: other 94 % of control | dose: 25.0 mg/kg/injection, schedule: Q01DX009 (ip), vehicle: other 120 % of control | dose: 25.0 mg/kg/injection, schedule: Q01DX009 (ip), vehicle: saline 114 % of control | dose: 50.0 mg/kg/injection, schedule: Q01DX009 (ip), vehicle: carboxymethylcellulose (CMC) 124 % of control | dose: 100.0 mg/kg/injection, schedule: Q01DX009 (ip), vehicle: carboxymethylcellulose (CMC) 118 % of control

C#CCCCCCCl
inactive: dose: 100.0 mg/kg/injection, schedule: Q01DX001 (ip), vehicle: other 95 % of control | dose: 200.0 mg/kg/injection, schedule: Q01DX001 (ip), vehicle: other 102 % of control

Cc1cc(=O)c2ccccc2[nH]1
inactive: dose: 25.0 mg/kg/injection, schedule: Q04DX003 (ip), vehicle: saline 94 % of control | dose: 50.0 mg/kg/injection, schedule: Q04DX003 (ip), vehicle: saline 100 % of control | dose: 100.0 mg/kg/injection, schedule: Q04DX003 (ip), vehicle: saline 94 % of control and 96 % of control

O=P1(c2ccccc2)CCc2[nH]c3ccc(Br)cc3c2C1 (stereo not drawn)
inactive: [11] 97 % of control | [12] 93 % of control | [13] 98 % of control

CC(C)(C)C(=O)C(C)(C)C
inactive: [16] 106 % of control | [17] 101 % of control

O=C1OCCO1
inactive: dose: 100.0 mg/kg/injection, schedule: Q04DX003 (ip), vehicle: saline sonified 95 % of control | dose: 200.0 mg/kg/injection, schedule: Q04DX003 (ip), vehicle: saline sonified 101 % of control | dose: 400.0 mg/kg/injection, schedule: Q04DX003 (ip), vehicle: saline sonified 101 % of control

ICC1COC(CI)CO1 (stereo not drawn)
inactive: [16] 97 % of control | [17] 111 % of control and 95 % of control | dose: 400.0 mg/kg/injection, schedule: Q01DX001 (ip), vehicle: carboxymethylcellulose (CMC) 95 % of control and 97 % of control

COC1(c2ccccc2)c2cc3ccccc3cc2C(OC)(c2ccccc2)c2cc3ccccc3cc21 (stereo not drawn)
inactive: [14] 98 % of control | [15] 109 % of control | dose: 400.0 mg/kg/injection, schedule: Q04DX002 (ip), vehicle: Klucel (hydroxypropylcellulose) (HPC) 95 % of control

Nc1cccc(C(=O)NCc2cccnc2)c1
inactive: [8] 110 % of control | [9] 107 % of control | [10] 104 % of control
